# Data as given in patent US20210340142A1, “SALT FORM AND CRYSTAL FORM OF NOVEL AZATRICYCLIC COMPOUND AND USE THEREOF” (BETTA PHARMACEUTICALS CO., LTD, priority 2018, published 2021).
# Key:
# [1] = target: FGFR3 (Homo sapiens, UniProt P22607); assay: Kinase assay (mobility shift assay)
# Excerpt: (§1) Prepare compounds: dilute test compounds to specific concentration using 100% DMSO
# [2] = target: FGFR4 (Homo sapiens, UniProt P22455); assay: Kinase assay (mobility shift assay)
# Excerpt: as §1
# [3] = Hygroscopicity assessment by dynamic vapor sorption (DVS); type: physicochemical; conditions: weight change between 0% RH to 80% RH, 25° C.
# Method: The hygroscopicity of the sample (the sample is a variety of crystal forms shown in Table 26) was tested using dynamic vapor sorption (DVS) instrument, and the water uptake of the sample at 0% RH (relative humidity) to 80% RH was tested.
# [4] = system: NCI-H1581 cells; assay: cells; conditions: Homo sapiens, NCI-H1581, read-out: IC50 on NCI-H1581 cells
# Method: 100 μl of CellTiter-Glo reagent was added to the assay plate and incubated for 10 min at room temperature to stabilize the luminescence signal.
# [5] = Stability assessment (influencing factors, 14 days; XRD, TGA, HPLC); type: physicochemical; conditions: for Crystalline form (XRD) / Decrease value of the main ingredient content (HPLC) / Weight loss (TGA): 14th day
# Method: Samples and preparation of experimental: An appropriate amount of maleate salt crystalline form 1, methanesulfonate salt crystalline form 1 and the compound of Formula I were put in watch glasses, and then spread into a thin layer about 3-5 mm in thickness.
# Experimental conditions: Under conventional (25° C., avoid light), high temperature (60° C., avoid light), high temperature and high humidity (40° C./75% RH, open and avoid light), light (25° C., 4500 lux±500 lux, open) and oxidation (40° C., container closure containing urea hydrogen peroxide, open and avoid light) conditions for 14 days.
# Test items: Sampled on 0th day and 14th day, the XRD, TGA and HPLC were tested and compared, the test results on the 14th day were show in Table 27.
# [6] = target: FGFR2 (Homo sapiens, UniProt P21802); assay: Kinase assay (mobility shift assay)
# Sequence of FGFR2 (P21802 22-821, species assumed): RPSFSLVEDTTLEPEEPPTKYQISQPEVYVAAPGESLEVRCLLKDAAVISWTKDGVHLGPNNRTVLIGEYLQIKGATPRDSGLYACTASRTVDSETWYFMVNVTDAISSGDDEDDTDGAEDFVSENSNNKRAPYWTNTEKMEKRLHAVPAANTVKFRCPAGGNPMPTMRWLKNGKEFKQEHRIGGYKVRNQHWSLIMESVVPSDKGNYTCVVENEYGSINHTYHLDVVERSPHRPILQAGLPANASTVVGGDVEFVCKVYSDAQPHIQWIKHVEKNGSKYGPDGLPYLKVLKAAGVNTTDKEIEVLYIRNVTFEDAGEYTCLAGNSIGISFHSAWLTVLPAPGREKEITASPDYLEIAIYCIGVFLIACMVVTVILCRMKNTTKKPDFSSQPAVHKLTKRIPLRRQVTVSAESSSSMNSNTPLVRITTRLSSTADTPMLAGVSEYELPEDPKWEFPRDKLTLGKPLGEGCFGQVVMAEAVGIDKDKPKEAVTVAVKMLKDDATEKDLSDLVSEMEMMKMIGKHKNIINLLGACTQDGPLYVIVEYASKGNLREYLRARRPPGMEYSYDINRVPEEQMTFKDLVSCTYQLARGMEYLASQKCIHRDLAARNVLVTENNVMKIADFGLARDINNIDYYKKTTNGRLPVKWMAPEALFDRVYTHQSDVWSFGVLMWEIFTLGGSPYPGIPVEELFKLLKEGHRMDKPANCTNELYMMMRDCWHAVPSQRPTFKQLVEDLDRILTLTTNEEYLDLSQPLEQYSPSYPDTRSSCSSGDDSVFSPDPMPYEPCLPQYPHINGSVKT
# Excerpt: as §1
# [7] = Pharmacokinetic study of compound of Formula I and maleate salt crystalline form 1 (Example 22); type: in vivo; conditions: male, rat, plasma, SD rats, oral, 10 mg/kg, 10% DMSO/10% Solutol/80% Water
# Excerpt: Drugs and reagents: 6-(2-chloro-3,5-dimethoxyphenyl)-N-(4-(4-morpholinopiperidin-1-yl)phenyl)-[1,2,4]triazolo[4′, 3′:1,6]pyrido[2,3-d]pyrimidin-2-amine (compound of Formula I), and maleate salt crystalline form 1 of the compound of Formula I used in this study were grounded to fine particles. The material content (purity) was not less than 99.0%.
# Experimental animals: SD rats were randomly divided into the compound of Formula I group and maleate salt crystalline form 1 group, each group including three male rats.
# Pharmaceutical preparation: each compound was prepared into a clear solution in 10% DMSO/10% Solutol/80% Water solution, the final concentration of each compound was 1 mg/mL.
# Administration and sample collection: each suspension was orally administered to fasted SD rats with a dose volume of 10 mL/kg and an administration dose of 10 mg/kg. The blood samples were collected in EDTA-K pre-anticoagulantion tubes before administration (0 h) and at 0.25 h, 0.5 h, 1 h, 2 h, 4 h, 7 h and 24 h after administration. The plasma was separated from the samples by centrifugation at 4000 rpm for 10 minutes at 4° C. The plasma was collected and stored at −80° C. for analysis.
# The samples were analyzed by AB4000 API LC/MS combined with HPLC. Under liquid chromatography conditions, a phenomenex C18 2.6 u (50×2.1 mm) column was used as the stationary phase, acetonitrile-water and 0.1% formic acid were used as the mobile phase, and the injection volume was 10 μL.
# [8] = Pharmacokinetic study of compound of Formula I and salt forms (Example 23); type: in vivo; conditions: male, rat, plasma, SD rats, oral, 10 mg/kg, prepared in purified water 0.5 mg/mL
# Excerpt: Drugs and reagents: 6-(2-chloro-3,5-dimethoxyphenyl)-N-(4-(4-morpholinopiperidin-1-yl)phenyl)-[1,2,4]triazolo[4′,3′:1,6]pyrido[2,3-d]pyrimidin-2-amine (compound of Formula I) and salt forms thereof which include malate salt crystalline form, tartrate salt crystalline form, phosphate salt crystalline form, methanesulfonate salt crystalline form, hydrochloride salt crystalline form, fumarate salt crystalline form, citrate salt crystalline form, besylate salt crystalline form used in this study were ground to fine particles.
# Experimental animals: SD rats were randomly divided into the compound of Formula I group and each salt crystalline form of the compound of Formula I group, each group including three male rats.
# Pharmaceutical preparation: each compound was prepared in purified water, wherein, the mesylate salt crystalline form, hydrochloride salt crystalline form and besylate salt crystalline form were prepared into a clear solution, the malate salt crystalline form, tartrate salt crystalline form, phosphate salt crystalline form, fumarate salt crystalline form, citrate salt crystalline form and sulfate salt crystalline form were prepared into a suspension, and final concentration of each compound was 0.5 mg/mL. […]
# The samples were analyzed by AB4000 API LC/MS combined with HPLC. […]
# [9] = system: SNU-16 cells; assay: Cell proliferation assay (CellTiter Glo); type: cell-based; conditions: Homo sapiens, growth inhibition in vitro, 96 hrs
# Method: Test method: the cells were added appropriate volume of whole medium to suspend. 100 μl of the cell suspension was added to a 96-well plate and placed in a CO2 incubator overnight. Tested compounds were dissolved in DMSO and subjected to a 3-fold gradient dilution for a total of 10 concentrations. Tested compound and DMSO reference materials were transferred to the corresponding wells containing 100 μl of medium respectively. Incubated in 5% CO2 at 37° C. for 96 hrs. 100 μl of CellTiter-Glo reagent was added to the assay plate and incubated for 10 min at room temperature to stabilize the luminescence signal. The IC50 value was calculated by recording the RLU (relative luminescence unit) using VICTOR TM X5 instrument.
# [10] = conventional (25° C., avoid light)
# [11] = high temperature (60° C., avoid light)
# [12] = high temperature and high humidity (40° C./75% RH)
# [13] = oxidation (40° C., urea hydrogen peroxide)
# Sequence of FGFR3 (P22607 23-806, species assumed): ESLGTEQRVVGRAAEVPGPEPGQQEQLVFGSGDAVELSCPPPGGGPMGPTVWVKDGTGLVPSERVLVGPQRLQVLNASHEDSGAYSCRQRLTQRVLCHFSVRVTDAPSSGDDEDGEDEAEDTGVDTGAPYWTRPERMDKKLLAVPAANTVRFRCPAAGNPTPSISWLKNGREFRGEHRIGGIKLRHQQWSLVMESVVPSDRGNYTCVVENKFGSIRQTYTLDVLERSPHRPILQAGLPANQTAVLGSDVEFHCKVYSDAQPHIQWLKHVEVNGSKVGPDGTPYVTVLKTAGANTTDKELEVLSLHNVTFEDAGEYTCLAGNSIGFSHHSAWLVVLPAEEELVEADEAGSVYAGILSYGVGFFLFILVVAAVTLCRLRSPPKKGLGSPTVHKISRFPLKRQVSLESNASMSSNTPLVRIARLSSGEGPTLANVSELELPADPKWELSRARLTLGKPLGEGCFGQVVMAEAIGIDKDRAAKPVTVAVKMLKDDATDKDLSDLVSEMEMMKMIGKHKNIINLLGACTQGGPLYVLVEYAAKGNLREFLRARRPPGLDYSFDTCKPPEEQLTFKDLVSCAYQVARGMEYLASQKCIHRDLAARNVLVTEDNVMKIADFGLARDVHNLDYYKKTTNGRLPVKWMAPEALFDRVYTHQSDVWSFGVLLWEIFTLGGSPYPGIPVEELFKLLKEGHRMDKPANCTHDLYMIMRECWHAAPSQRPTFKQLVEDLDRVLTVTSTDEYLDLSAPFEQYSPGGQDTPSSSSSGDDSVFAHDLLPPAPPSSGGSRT
# Sequence of FGFR4 (P22455 22-802, species assumed): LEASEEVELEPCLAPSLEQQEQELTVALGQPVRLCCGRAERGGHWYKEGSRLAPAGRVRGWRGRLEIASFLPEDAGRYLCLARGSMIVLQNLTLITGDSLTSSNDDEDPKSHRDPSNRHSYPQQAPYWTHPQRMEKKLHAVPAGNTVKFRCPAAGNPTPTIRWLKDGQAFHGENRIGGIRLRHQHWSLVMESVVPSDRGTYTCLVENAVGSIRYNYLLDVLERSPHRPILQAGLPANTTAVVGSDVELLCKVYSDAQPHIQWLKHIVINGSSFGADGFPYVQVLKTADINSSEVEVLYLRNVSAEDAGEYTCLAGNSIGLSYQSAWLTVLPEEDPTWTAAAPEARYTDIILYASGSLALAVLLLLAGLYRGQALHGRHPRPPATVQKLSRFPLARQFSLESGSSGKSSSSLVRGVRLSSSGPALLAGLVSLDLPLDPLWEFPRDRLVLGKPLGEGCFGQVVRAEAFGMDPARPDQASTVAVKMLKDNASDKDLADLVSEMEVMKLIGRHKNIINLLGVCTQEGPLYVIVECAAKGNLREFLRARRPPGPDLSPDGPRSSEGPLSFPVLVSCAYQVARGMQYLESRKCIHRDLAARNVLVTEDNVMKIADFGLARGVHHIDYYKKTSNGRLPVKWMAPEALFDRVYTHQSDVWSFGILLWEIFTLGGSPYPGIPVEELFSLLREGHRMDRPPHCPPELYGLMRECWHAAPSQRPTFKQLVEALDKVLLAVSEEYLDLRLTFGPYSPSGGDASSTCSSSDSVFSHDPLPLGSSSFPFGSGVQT
smiles,measurement,setting,value
"COc1cc(OC)c(Cl)c(-c2cc3cnc(Nc4ccc(N5CCC(N6CCOCC6)CC5)cc4)nc3n3cnnc23)c1 [compound of Formula I, 6-(2-chloro-3,5-dimethoxyphenyl)-N-(4-(4-morpholinopiperidin-1-yl)phenyl)-[1,2,4]triazolo[4′,3′:1,6]pyrido[2,3-d]pyrimidin-2-amine]",IC50,[1],1.2 nM
same,IC50,[2],21 nM
same,water uptake,[3],15.3%
same,IC50,[4],2 nM
same,Crystalline form (XRD),[5]; [10],unchanged
same,Decrease value of the main ingredient content (HPLC),[5]; [10],<0.4%
same,Weight loss (TGA),[5]; [10],20%-22%
same,Crystalline form (XRD),[5]; [11],transformed
same,Decrease value of the main ingredient content (HPLC),[5]; [11],13.5%
same,Weight loss (TGA),[5]; [11],about 18%
same,Decrease value of the main ingredient content (HPLC),[5]; [12],<0.4%
same,Weight loss (TGA),[5]; [12],20%-22%
same,Crystalline form (XRD),"[5]; high temperature and high humidity (40° C./75% RH, open, avoid light)",decrease
same,Weight loss (TGA),"[5]; light (25° C., 4500 lux±500 lux)",20%-22%
same,Crystalline form (XRD),"[5]; light (25° C., 4500 lux±500 lux, open)",transformed
same,Decrease value of the main ingredient content (HPLC),[5]; [13],40.3%
same,Weight loss (TGA),[5]; [13],about 27%
same,Crystalline form (XRD),"[5]; oxidation (40° C., urea hydrogen peroxide, open, avoid light)",transformed
same,"stability of crystalline form (XRD, overall statement)","[5]; 14 days, all conditions",relatively low
same,IC50,[6],1.7 nM
same,AUC(0-inf),[7],6520 ng·h/mL
same,Cmax,[7],443 ng/mL
same,Tmax,[7],6 h
same,half-life,[7],7.9 h
same,AUC(0-t),[7]; read-out: AUC(0-24),5870 ng·h/mL
same,Cmax,[8],179 ng/mL
same,AUC(0-t),[8]; read-out: AUC(0-24),786 ng·h/mL
same,IC50,[9],< 1 nM
